From ChEMBL document CHEMBL5579824, “Novel Hsp90-Targeting PROTACs: Enhanced synergy with cisplatin in combination therapy of cervical cancer” (Eur J Med Chem, 2024)
Active and inactive are the calls of the source. The calls are words filed in the database; no cut-off is given here.

What was measured:
[1] = target: T1, Protein cereblon/Heat shock protein HSP 90-alpha/Heat shock protein HSP 90-beta (Homo sapiens) (UniProt P07900+P08238+Q96SW2); experiment: Protac activity at CRBN/Hsp90 in human SiHa cells assessed as induction of Hsp90 degradation at 1 uM incubated for 2 hrs by Western blot analysis; assay type: cell-based
[2] = target: T1, Protein cereblon/Heat shock protein HSP 90-alpha/Heat shock protein HSP 90-beta (Homo sapiens); experiment: Protac activity at CRBN/Hsp90 in human SiHa cells assessed as induction of Hsp90 degradation at 1 uM incubated for 10 hrs by Western blot analysis; assay type: cell-based
SiHa = experiment: Antiproliferative activity against human SiHa cells assessed as reduction in cell viability incubated for 72 hrs by CCK-8 assay; assay type: functional, cell-based
[3] = target: T2, von Hippel-Lindau disease tumor suppressor/Heat shock protein HSP 90-alpha/Heat shock protein HSP 90-beta (Homo sapiens) (UniProt P07900+P08238+P40337); experiment: Protac activity at VHL/Hsp90 in human SiHa cells assessed as induction of Hsp90 degradation at 1 uM incubated for 10 hrs by Western blot analysis; assay type: cell-based
[4] = target: T1, Protein cereblon/Heat shock protein HSP 90-alpha/Heat shock protein HSP 90-beta (Homo sapiens); experiment: Protac activity at CRBN/Hsp90 in human SiHa cells assessed as induction of Hsp90 degradation (causing hook effect) at > 0.1 uM incubated for 10 hrs by Western blot analysis; assay type: cell-based
[5] = target: T2, von Hippel-Lindau disease tumor suppressor/Heat shock protein HSP 90-alpha/Heat shock protein HSP 90-beta (Homo sapiens); experiment: Protac activity at VHL/Hsp90 in human SiHa cells assessed as induction of Hsp90 degradation (causing hook effect) at > 0.1 uM incubated for 10 hrs by Western blot analysis; assay type: cell-based

T2 sequence (P08238 whole entry, looked up, other chains not shown): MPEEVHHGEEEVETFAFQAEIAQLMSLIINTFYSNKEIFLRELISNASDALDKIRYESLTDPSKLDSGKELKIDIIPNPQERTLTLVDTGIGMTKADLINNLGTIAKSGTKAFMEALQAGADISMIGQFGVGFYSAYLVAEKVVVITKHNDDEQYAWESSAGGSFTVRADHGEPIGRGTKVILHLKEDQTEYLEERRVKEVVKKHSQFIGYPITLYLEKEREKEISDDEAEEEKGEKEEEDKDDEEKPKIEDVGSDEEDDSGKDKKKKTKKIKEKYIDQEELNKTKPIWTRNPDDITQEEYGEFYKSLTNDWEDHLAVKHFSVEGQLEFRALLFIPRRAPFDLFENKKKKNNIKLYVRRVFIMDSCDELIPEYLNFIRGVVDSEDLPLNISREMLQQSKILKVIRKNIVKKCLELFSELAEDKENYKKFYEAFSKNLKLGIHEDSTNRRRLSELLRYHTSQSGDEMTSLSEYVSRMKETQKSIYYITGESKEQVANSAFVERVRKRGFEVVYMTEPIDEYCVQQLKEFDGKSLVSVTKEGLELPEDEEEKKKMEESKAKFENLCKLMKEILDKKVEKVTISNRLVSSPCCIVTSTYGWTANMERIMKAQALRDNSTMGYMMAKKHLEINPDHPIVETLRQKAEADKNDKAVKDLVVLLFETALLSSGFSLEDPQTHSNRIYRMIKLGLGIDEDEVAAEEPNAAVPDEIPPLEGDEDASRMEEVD
T2 sequence (P40337 whole entry, looked up, other chains not shown): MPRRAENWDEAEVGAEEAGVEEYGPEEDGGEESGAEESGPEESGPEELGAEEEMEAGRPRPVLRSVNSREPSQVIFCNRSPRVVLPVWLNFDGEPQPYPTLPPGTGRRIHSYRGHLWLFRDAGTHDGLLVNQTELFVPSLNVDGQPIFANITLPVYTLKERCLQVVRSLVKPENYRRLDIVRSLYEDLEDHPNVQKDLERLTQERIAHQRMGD

Activity [2]	SMILES	IC50 (SiHa)	further results
–	CN1C(=O)CCC(N2Cc3c(NCCCCCCCC(=O)NCC(=O)O[C@H]4CC[C@H](Nc5cc(-n6nc(C(F)(F)F)c7c6CC(C)(C)CC7=O)ccc5C(N)=O)CC4)cccc3C2=O)C1=O (some centres not stated)	–	Activity [1]: inactive
inactive	CC1(C)CC(=O)c2c(C(F)(F)F)nn(-c3ccc(C(N)=O)c(NCCCNC(=O)CCCCCCCCCCNc4cccc5c4CN(C4CCC(=O)NC4=O)C5=O)c3)c2C1 (configuration not stated)	560 nM	–
inactive	CC1(C)CC(=O)c2c(C(F)(F)F)nn(-c3ccc(C(N)=O)c(N[C@H]4CC[C@H](NCCCCCCCCCC(=O)Nc5cccc6c5CN(C5CCC(=O)NC5=O)C6=O)CC4)c3)c2C1 (some centres not stated)	5270 nM	–
–	CC1(C)CC(=O)c2c(C(F)(F)F)nn(-c3ccc(C(N)=O)c(N[C@H]4CC[C@H](OC(=O)CNC(=O)CCCCNc5cccc6c5CN(C5CCC(=O)NC5=O)C6=O)CC4)c3)c2C1 (some centres not stated)	310 nM	–
Active	CC1(C)CC(=O)c2c(C(F)(F)F)nn(-c3ccc(C(N)=O)c(N[C@H]4CC[C@H](OC(=O)CNC(=O)CCCNc5cccc6c5CN(C5CCC(=O)NC5=O)C6=O)CC4)c3)c2C1 (some centres not stated)	70 nM	–
–	Cc1ncsc1-c1ccc([C@H](C)NC(=O)[C@@H]2C[C@@H](O)CN2C(=O)[C@@H](NCCCCCC(=O)NCC(=O)O[C@H]2CC[C@H](Nc3cc(-n4nc(C(F)(F)F)c5c4CC(C)(C)CC5=O)ccc3C(N)=O)CC2)C(C)(C)C)cc1	660 nM	–
inactive	CC1(C)CC(=O)c2c(C(F)(F)F)nn(-c3ccc(C(N)=O)c(NCCCNC(=O)COCCOCCNc4cccc5c4CN(C4CCC(=O)NC4=O)C5=O)c3)c2C1 (configuration not stated)	7300 nM	–
–	CC1(C)CC(=O)c2c(C(F)(F)F)nn(-c3ccc(C(N)=O)c(N[C@H]4CC[C@H](OC(=O)CNC(=O)CCCCCCCCCNc5cccc6c5CN(C5CCC(=O)NC5=O)C6=O)CC4)c3)c2C1 (some centres not stated)	140 nM	–
–	Cc1ncsc1-c1ccc([C@H](C)NC(=O)[C@@H]2C[C@@H](O)CN2C(=O)[C@@H](NCCCCCCCC(=O)NCC(=O)O[C@H]2CC[C@H](Nc3cc(-n4nc(C(F)(F)F)c5c4CC(C)(C)CC5=O)ccc3C(N)=O)CC2)C(C)(C)C)cc1	170 nM	Activity [3]: Active
inactive	CC1(C)CC(=O)c2c(C(F)(F)F)nn(-c3ccc(C(N)=O)c(NCCCNC(=O)CCCCCNc4cccc5c4CN(C4CCC(=O)NC4=O)C5=O)c3)c2C1 (configuration not stated)	9610 nM	–
inactive	CC1(C)CC(=O)c2c(C(F)(F)F)nn(-c3ccc(C(N)=O)c(NCCCNC(=O)CCCCCCCCCNc4cccc5c4CN(C4CCC(=O)NC4=O)C5=O)c3)c2C1 (configuration not stated)	430 nM	–
Active	CC1(C)CC(=O)c2c(C(F)(F)F)nn(-c3ccc(C(N)=O)c(N[C@H]4CC[C@H](OC(=O)CNC(=O)CCCCCCNc5cccc6c5CN(C5CCC(=O)NC5=O)C6=O)CC4)c3)c2C1 (some centres not stated)	240 nM	–
inactive	CC1(C)CC(=O)c2c(C(F)(F)F)nn(-c3ccc(C(N)=O)c(N[C@H]4CC[C@H](OC(=O)CNC(=O)COCCOCCNc5cccc6c5C(=O)N(C5CCC(=O)NC5=O)C6=O)CC4)c3)c2C1 (some centres not stated)	40 nM	Activity [4]: inactive
inactive	CC1(C)CC(=O)c2c(C(F)(F)F)nn(-c3ccc(C(N)=O)c(NCCCNC(=O)CCCCCCCNc4cccc5c4CN(C4CCC(=O)NC4=O)C5=O)c3)c2C1 (configuration not stated)	5520 nM	–
inactive	CC1(C)CC(=O)c2c(C(F)(F)F)nn(-c3ccc(C(N)=O)c(N[C@H]4CC[C@H](NC(=O)CCCCCCCCCNc5cccc6c5CN(C5CCC(=O)NC5=O)C6=O)CC4)c3)c2C1 (some centres not stated)	190 nM	–
–	Cc1ncsc1-c1ccc([C@H](C)NC(=O)[C@@H]2C[C@@H](O)CN2C(=O)[C@@H](NCCOCCOCC(=O)NCC(=O)O[C@H]2CC[C@H](Nc3cc(-n4nc(C(F)(F)F)c5c4CC(C)(C)CC5=O)ccc3C(N)=O)CC2)C(C)(C)C)cc1	30 nM	Activity [3]: inactive; Activity [5]: inactive
inactive	CC1(C)CC(=O)c2c(C(F)(F)F)nn(-c3ccc(C(N)=O)c(N[C@H]4CC[C@H](NC(=O)CNC(=O)CCCCCCCCCNc5cccc6c5CN(C5CCC(=O)NC5=O)C6=O)CC4)c3)c2C1 (some centres not stated)	750 nM	–
–	Cc1ncsc1-c1ccc([C@H](C)NC(=O)[C@@H]2C[C@@H](O)CN2C(=O)[C@@H](NCCCCCCCCCC(=O)NCC(=O)O[C@H]2CC[C@H](Nc3cc(-n4nc(C(F)(F)F)c5c4CC(C)(C)CC5=O)ccc3C(N)=O)CC2)C(C)(C)C)cc1	230 nM	Activity [3]: Active
–	CC1(C)CC(=O)c2c(C(F)(F)F)nn(-c3ccc(C(N)=O)c(N[C@H]4CC[C@H](OC(=O)CN)CC4)c3)c2C1 [SNX 5422]	14 nM	–
Active	CC1(C)CC(=O)c2c(C(F)(F)F)nn(-c3ccc(C(N)=O)c(N[C@H]4CC[C@H](OC(=O)CNC(=O)CCCCCNc5cccc6c5CN(C5CCC(=O)NC5=O)C6=O)CC4)c3)c2C1 (some centres not stated)	460 nM	–
